Test results reported in publication PMC4999056 (European Journal of Medicinal Chemistry, 2016).
pEC50: −log10 of the molar value. Like-named read-outs stand apart in the source and are kept apart here.

Key:
DENV (serotype 2) = test: microbe, parasite or virus in culture; assay type: cell-based, Dengue virus serotype 2; settings: for pEC50: read-out: Dengue EC50
in vitro [1] = test: in vitro
YFV = test: microbe, parasite or virus in culture; assay type: cell-based, yellow fever virus; settings: for pEC50: read-out: Yellow fever EC50
in vitro [2] = settings: chlorocebus aethiops

Structure (SMILES)	Dengue SI (DENV (serotype 2))	pEC50 (DENV (serotype 2); Dengue virus, Vero B)	CC50 (in vitro [1]; chlorocebus aethiops)	Yellow fever SI (YFV)	pEC50 (YFV; Yellow fever virus, Vero B)	CC50 (in vitro [2]; Yellow fever CC50)	further results
Cc1ccc(NC(=O)c2nccnc2C(=O)Nc2ccc(C)cc2-c2cc(C)n[nH]2)cc1 [6b, N^2-(4-methyl-2-(3-methyl-1H-pyrazol-5-yl)phenyl)-N^3-(p-tolyl)pyrazine-2,3-dicarboxamide]	>235	6.30	> 117 µM				fold increase of DENV inhibitory properties (DENV (serotype 2)): 50 fold; CC50 (in vitro [1]; green monkey): > 116 µM
Cc1ccc(NC(=O)c2ccccc2C(=O)Nc2ccc(C)cc2-c2cccs2)cc1 [7d, N^1-(4-methyl-2-(thiophen-2-yl)phenyl)-N^2-(p-tolyl)phthalamide]	>8	4.85	> 117 µM	>1.6	4.63	> 37 µM	
Cc1ccc(NC(=O)c2ccccc2C(=O)Nc2ccc(C)cc2-c2cc(C)n[nH]2)cc1 [7c, N^1-(4-methyl-2-(3-methyl-1H-pyrazol-5-yl)phenyl)-N^2-(p-tolyl)phthalamide]	>4	4.54	> 117 µM				fold loss in DENV inhibitory activity (DENV (serotype 2)): 60 fold
Cc1ccc(NC(=O)c2nccnc2C(=O)Nc2ccc(F)cc2)c(-c2ccc(C)s2)c1 [6e, N^2-(4-fluorophenyl)-N^3-(4-methyl-2-(5-methylthiophen-2-yl)phenyl)pyrazine-2,3-dicarboxamide]	1	< 3.95	> 112 µM				Dengue EC50 (DENV (serotype 2)): complete loss of DENV inhibitory activity
Cc1ccc(NC(=O)c2ccccc2C(=O)Nc2ccc(F)cc2)c(-c2cc(C)n[nH]2)c1 [7a, N^1-(4-fluorophenyl)-N^2-(4-methyl-2-(3-methyl-1H-pyrazol-5-yl)phenyl)phthal-amide]	>235	6.30	> 117 µM				fold more inhibitory against dengue virus (DENV (serotype 2)): 5 fold
O=C(NCc1ccc(-c2ccsc2)cc1)c1nccnc1C(=O)Nc1ccc(F)cc1 [6k, N^2-(4-fluorophenyl)-N^3-(4-(thiophen-3-yl)benzyl)pyrazine-2,3-dicarboxamide]	1	< 3.94	> 116 µM	>6	4.73	> 116 µM	
Cc1ccc(NC(=O)c2nccnc2C(=O)Nc2ccc(C)cc2-c2ccc(C)s2)cc1 [6f, N^2-(4-methyl-2-(5-methylthiophen-2-yl)phenyl)-N^3-(p-tolyl)pyrazine-2,3-dicarboxamide]	1	< 3.95	> 113 µM				Dengue EC50 (DENV (serotype 2)): complete loss of DENV inhibitory activity
Cc1ccc(NC(=O)c2nc[nH]c2C(=O)Nc2ccc(F)cc2)c(-c2cc(C)n[nH]2)c1 [compound 1]		5.60			5.46		
Cc1ccc(NC(=O)c2nccnc2C(=O)Nc2ccc(F)cc2)c(-c2ccsc2)c1 [6g, N^2-(4-fluorophenyl)-N^3-(4-methyl-2-(thiophen-3-yl)phenyl)pyrazine-2,3-dicarboxamide]	>55	5.68	> 116 µM	>11	4.97	> 116 µM	
Cc1ccc(NC(=O)c2nccnc2C(=O)Nc2ccc(C)cc2-c2ccsc2)cc1 [6h, N^2-(4-methyl-2-(thiophen-3-yl)phenyl)-N^3-(p-tolyl)pyrazine-2,3-dicarboxamide]	>29	5.47 to 6.30		1	< 3.94	> 116 µM	pEC50 (DENV (serotype 2)): > 6.05; CC50 at 168 h (in vitro [1]; chlorocebus aethiops): 26 µM
O=C(NCc1ccc(-c2ccsc2)cc1)c1ccccc1C(=O)Nc1ccc(F)cc1 [7k, N^1-(4-fluorophenyl)-N^2-(4-(thiophen-3-yl)benzyl)phthalamide]	>7	4.80	> 116 µM	>16	5.13	> 117 µM	
Cc1ccc(NC(=O)c2ccccc2C(=O)Nc2ccc(F)cc2)c(-c2ccc(C)s2)c1 [7f, N^1-(4-fluorophenyl)-N^2-(4-methyl-2-(5-methylthiophen-2-yl)phenyl)phthalamide]	>39	5.54	> 113 µM	>17	5.17	> 113 µM	
Cc1ccc(NC(=O)c2nccnc2C(=O)Nc2ccc(F)cc2)c(-c2cccs2)c1 [6c, N^2-(4-fluorophenyl)-N^3-(4-methyl-2-(thiophen-2-yl)phenyl)pyrazine-2,3-dicarboxamide]	>25	5.34	> 116 µM		4.64	> 116 µM	
Cc1cc(-c2ccccc2NC(=O)c2ccccc2C(=O)Nc2ccc(F)cc2)[nH]n1 [7m, N^1-(4-fluorophenyl)-N^2-(2-(3-methyl-1H-pyrazol-5-yl)phenyl)phthalamide]	1	< 3.92	> 120 µM	>10	4.92	> 120 µM	
Cc1ccc(NC(=O)c2nccnc2C(=O)NCc2ccccc2-c2ccsc2)cc1 [6j, N^2-(2-(thiophen-3-yl)benzyl)-N^3-(p-tolyl)pyrazine-2,3-dicarboxamide]	1	< 4.32		14			pEC50 (YFV): 5.27; CC50 at 168 h (in vitro [1]; chlorocebus aethiops): 48 µM; CC50 at 168 h (in vitro [2]; Yellow fever CC50): 75 µM
Cc1ccc(NC(=O)c2ccccc2NC(=O)c2ccc(F)cc2)c(-c2ccncc2)c1 [13c, 2-(4-fluorobenzamido)-N-(4-methyl-2-(pyridin-4-yl)phenyl)benzamide]	>7	4.77	> 117 µM	1	< 3.93	> 50 µM	CC50 (in vitro [2]; Yellow fever CC50 (visual)): 30 µM
Cc1ccc(NC(=O)c2ccccc2C(=O)Nc2ccc(C)cc2-c2ccc(C)s2)cc1 [7e, N^1-(4-methyl-2-(5-methylthiophen-2-yl)phenyl)-N^2-(p-tolyl)phthalamide]	>57	5.70	> 114 µM	3.4	5.17		CC50 at 168 h (in vitro [2]; Yellow fever CC50): 23 µM
Cc1ccc(NC(=O)c2ccccc2NC(=O)c2ccc(F)cc2)c(-c2cccnc2)c1 [13d, 2-(4-fluorobenzamido)-N-(4-methyl-2-(pyridin-3-yl)phenyl)benzamide]	>5	4.64	> 117 µM	1	< 3.93	> 50 µM	CC50 (in vitro [2]; Yellow fever CC50 (visual)): 39 µM
Cc1ccc(NC(=O)c2ccccc2C(=O)Nc2ccccc2-c2cc(C)n[nH]2)cc1 [7n, N^1-(2-(3-methyl-1H-pyrazol-5-yl)phenyl)-N^2-(p-tolyl)phthalamide]	>9	4.85	> 122 µM	>21	5.24	> 122 µM	
Cc1cc(-c2ccccc2NC(=O)c2nccnc2C(=O)Nc2ccc(F)cc2)[nH]n1 [6m, N^2-(4-fluorophenyl)-N^3-(2-(3-methyl-1H-pyrazol-5-yl)phenyl)pyrazine-2,3-dicarboxamide]	>55	5.66	> 120 µM	10	5.11		fold increase of DENV inhibitory properties (DENV (serotype 2)): 12 fold; CC50 at 168 h (in vitro [2]; Yellow fever CC50): 77 µM
Cc1ccc(NC(=O)c2ccccc2NC(=O)c2ccc(F)cc2)c(-c2ccsc2)c1 [13a, 2-(4-fluorobenzamido)-N-(4-methyl-2-(thiophen-3-yl)phenyl)benzamide]		< 3.94	> 116 µM		< 3.94	> 116 µM	
Cc1ccc(NC(=O)c2nccnc2C(=O)Nc2ccc(C)cc2-c2cccs2)cc1 [6d, N^2-(4-methyl-2-(thiophen-2-yl)phenyl)-N^3-(p-tolyl)pyrazine-2,3-dicarboxamide]	>235	6.30	> 117 µM				fold increase in DENV activity for the methyl congener (DENV (serotype 2)): 10 fold; CC50 (in vitro [1]; green monkey): > 116 µM
Cc1ccc(NC(=O)c2nccnc2C(=O)Nc2ccc(F)cc2)c(-c2cc(C)n[nH]2)c1 [6a, N^2-(4-fluorophenyl)-N^3-(4-methyl-2-(3-methyl-1H-pyrazol-5-yl)phenyl) pyrazine-2,3 dicarboxamide]	>4	4.58	> 116 µM				fold reduction in inhibitory properties against dengue virus (DENV (serotype 2)): 10 fold
